# Results: ChEMBL document CHEMBL1201862, “PubChem BioAssay data set” (2004)
#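 Cultured in 96-well plates, cells were exposed to test compound for 48 hours across five concentrations. Abbreviation: GI50, concentration required for 50% inhibition of growth.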 Calls of active or inactive are those of the source. Cut-off read from the data, not from the text of the source: active = GI50 up to about 1.1 µM and inactive = higher.
# How the values were obtained:
# Experiment in all cases: inhibition of tumour cell growth, NCI panel, 48 h
# CAKI-1 = tested on: CAKI-1
# HCC 2998 = tested on: HCC 2998
# HCT-15 = tested on: HCT-15
# HOP-62 = tested on: HOP-62
# K562 = tested on: K562
# KM12 = tested on: KM12
# M14 = tested on: M14
# MCF7 = tested on: MCF7
# MDA-MB-435 = tested on: MDA-MB-435
# MOLT-4 = tested on: MOLT-4
# NCI-H226 = tested on: NCI-H226
# NCI/ADR-RES = tested on: NCI/ADR-RES
# RPMI-8226 = tested on: RPMI-8226
# SK-OV-3 = tested on: SK-OV-3
# SR = tested on: SR
# UACC-257 = tested on: UACC-257
# UO-31 = tested on: UO-31
# SF-539 = tested on: SF-539
SMILES,GI50 (CAKI-1),GI50 (HCC 2998),GI50 (HCT-15),GI50 (HOP-62),GI50 (K562),GI50 (KM12),GI50 (M14),GI50 (MCF7),GI50 (MDA-MB-435),GI50 (MOLT-4),GI50 (NCI-H226),GI50 (NCI/ADR-RES),GI50 (RPMI-8226),GI50 (SK-OV-3),GI50 (SR),GI50 (UACC-257),GI50 (UO-31),GI50 (SF-539)
COc1ccc(/C=N/NC(=O)c2ccccc2Nc2ccccc2C(=O)N/N=C/c2ccc(OC)cc2)cc1,> 100 µM (inactive),> 100 µM (inactive),> 100 µM,> 100 µM (inactive),> 100 µM (inactive),> 100 µM (inactive),> 100 µM (inactive),> 100 µM (inactive),> 100 µM (inactive),> 100 µM (inactive),> 100 µM (inactive),> 100 µM (inactive),> 100 µM (inactive),> 100 µM (inactive),> 100 µM (inactive),> 100 µM (inactive),> 100 µM (inactive),
COc1ccc(C(=O)N2CCc3c([nH]c4ccccc34)C2C(=O)O)o1 (stereo not drawn),> 10 µM (inactive),> 10 µM (inactive),> 10 µM,> 10 µM (inactive),> 10 µM (inactive),> 10 µM (inactive),> 10 µM (inactive),> 10 µM (inactive),> 10 µM (inactive),> 10 µM (inactive),,> 10 µM (inactive),> 10 µM (inactive),> 10 µM (inactive),> 10 µM (inactive),> 10 µM (inactive),,> 10 µM (inactive)
O=C(CN1CCCCC1)Nc1ccc2sc3ccccc3c(=O)c2n1,13.6 µM (inactive),14.8 µM (inactive),12.2 µM,13.8 µM (inactive),5.36 µM (inactive),19.1 µM (inactive),17.9 µM (inactive),19.5 µM (inactive),13.1 µM (inactive),2.69 µM (inactive),,7.82 µM (inactive),13.1 µM (inactive),21.3 µM (inactive),21.5 µM (inactive),18.2 µM (inactive),9.95 µM (inactive),16.4 µM (inactive)
NCCCn1c2ccccc2c2c3c(c4c(c21)CCC(O)CC4)C(=O)NC3=O (stereo not drawn),3.66 µM (inactive),0.845 µM (active),11 µM,2.5 µM (inactive),0.69 µM (active),0.458 µM (active),4.48 µM (inactive),0.796 µM (active),1.53 µM (inactive),1.53 µM (inactive),2.74 µM (inactive),13 µM (inactive),1.98 µM (inactive),,1.69 µM (inactive),14.8 µM (inactive),6.27 µM (inactive),6.61 µM (inactive)
CCOc1c(OC)cc(CNNc2nccs2)cc1OC,> 100 µM (inactive),> 100 µM (inactive),28 µM,> 100 µM (inactive),24 µM (inactive),> 100 µM (inactive),42.1 µM (inactive),> 100 µM (inactive),54.2 µM (inactive),28.6 µM (inactive),> 100 µM (inactive),70.6 µM (inactive),7.03 µM (inactive),,29.5 µM (inactive),20.1 µM (inactive),71.9 µM (inactive),> 100 µM (inactive)
CSC(=S)N/N=C(\C)c1cccc(C)n1,1.1 µM (active),3.17 µM (inactive),0.375 µM,0.953 µM (active),0.042 µM (active),2.26 µM (inactive),0.312 µM (active),0.128 µM (active),1.35 µM (inactive),0.123 µM (active),0.824 µM (active),1.36 µM (inactive),,0.719 µM (active),0.23 µM (active),0.92 µM (active),1.21 µM (inactive),1.17 µM (inactive)
Cn1cnc(N2CCCC2)c(C#N)c1=S,35.9 µM (inactive),> 100 µM (inactive),> 100 µM,> 100 µM (inactive),> 100 µM (inactive),> 100 µM (inactive),> 100 µM (inactive),> 100 µM (inactive),> 100 µM (inactive),> 100 µM (inactive),> 100 µM (inactive),> 100 µM (inactive),> 100 µM (inactive),,> 100 µM (inactive),> 100 µM (inactive),23.2 µM (inactive),> 100 µM (inactive)
